Data set [1] has as its system K562 erythroleukaemia cell line. Description: In vitro antitumoral activity / toxicity assay (propidium iodide, flow cytofluorometry). It is filed as cell-based. Conditions: FIG. 1. As to the method:
The compound described in example 1.3 and named 309 bis was tested to evaluate the "in vitro" antitumoral activity according to the following method:
Cell cultures. K562 erythroleukaemia cell line was obtained from ATCC (Rockville, Md., USA). Cell culture media and plastic were from Flow (U.K.). Cells were grown in RPMI 1640 medium supplemented with 10% (v/v) heat-inactivated foetal calf serum, 2mM L-glutamine, 2.0 g.1^-1 bicarbonate, and 10 mM Hepes (4-(2-hydroxyethyl)-1-piperazine ethanesulphonic acid) in humidified atmosphere with 5% (v/v) CO2 at 37° C. Coltures were performed without the addition of any antibiotics, and were routinely checked for the presence of Mycoplasma infection.
Toxicity assay. Cells were washed and suspended to the final concentration of 10^6 ml^-1 in a medium containing 5% (v/v) FCS. The chemical compounds under evaluation were diluted from a 2 mM stock solution containing 5% (v/v) FCS and 0.2% (v/v) dimethylsulphoxide (DMSO, FCS and medium were added in sequence to facilitate solubility); when necessary, solutions were treated with short sonical pulses. 0.2% DMSO was added to controls. […] The 560-580 nm fluorescence of the death cells, excited at 490-495 nm, was monitored on a FACS-analizer flow cytofluorometer (Becton Dickinson, Calif., USA) using a Consort 30 programme. […]

The target in data set [2] is phosphatidylinositol-specific phospholipase C (PLC). Kind of data set: Inhibition of phosphatidylinositol-specific phospholipase C enzymatic activity (hydrolysis of [3H]phosphatidylinositol). It is filed as biochemical. To be noted: soluble fraction of human platelets; 20 min preincubation, 15 min reaction, pH 6.5, 37° C.; read-out: IC50 (Inhibitor concentration inhibiting 50% of the enzyme). As to the method:
The following experiments were carried out with the compounds prepared in the Examples 1-5 above mentioned in order to evaluate their ability to inhibit the enzymatic activity of phosphatidylinositol-specific phospholipase C (PLC).
The test were carried out according to the following operations.
1. Preparation of phosphatidylinositol-specific phospholipase C enzyme from human platelets.
As the starting material human plasma enriched with human platelets was used.
Platelets were precipitated from plasma by centrifugation at 0°-4° C. for 30 minutes at 2,500×g. The platelets precipitate was washed twice by using a buffer "A" Hepes pH 7 (137 mM NaCl, 20 mM Hepes; 1.0 mM EGTA; 5 mM glucose) and successively recovered by using buffer "B" Hepes (10 mM Hepes, pH 7).
The platelets were sonicated and centrifuged at 3,200×g for 20 minutes at 0-4° C. The surnatant consisting of platelets homogenate, was separated and ultracentrifuged at 105,000×g for 1 hour, thereby obtaining two fractions: the soluble one and the particulate one, both containing PLC.
2. Preparation of phosphatidylinositol substrate.
The substrate marked for PLC, L-3-phosphatidyl [2-^3 H] inositol, cod. […]
The product was purified by HPLC and had the following characteristics: specific activity 20 Ci/mMol (22.6 mCi/mg), radioactivity concentration 50μCi/ml ([…]=1.85 ×10^6 Bq); the hydroxyl groups 1 and 2 of glycerol resulted esterified with stearic acid and arachidonic acid in 90% of the product.
1 ml of a chloroform solution containing L-phosphatidylinositol (10 mg/ml sigma cod P 25/7 containing mainly stearic acid and arachidonic acid) was taken. […] Marked phosphatidylinositol was added to 9 ml of said solution in such an amount that in 300μl of the solution (2.0× 10^-4 M) thus obtained, 130,078±1316 Dpm were recorded. […]
In order to determine the inhibitory activity of the compounds of the present invention, said compounds and the enzyme were preincubated for 20 minutes. […] A suitable aliquot of the aqueous phase was utilized for the scintillatot readings.

`CCCCCCCCCCCCCCCCCCSP(=O)(O)O[C@@H]1[C@H](O)[C@H](O)[C@@H](O)[C@H](O)[C@H]1O` (relative stereo) [Example 1.3, 1-O-(OCTADECYLPHOSPHOTHIOLYL)-MYO-INOSITOL]: the “% toxicity (percentage of killed cells), maximum” value in data set [1] (concentration 10^-3 -3×10^-3 M) is listed as around 100%. The “antitumoral activity on erythroleukaemic cells” value in data set [1] (concentration 10^-5 M) is on record as “shows antitumoral activity”.

`CCCCCCCCCCCCCCSP(=O)(O)O[C@@H]1[C@H](O)[C@H](O)[C@@H](O)[C@H](O)[C@H]1O` (relative stereo) [Example 3.3, 1-O-(TETRADECYLPHOSPHOTHIOLYL)-MYO-INOSITOL]: the IC50 in data set [2] was around 100 µM.

As for `CCCCCCCCCCCCSP(=O)(O)O[C@@H]1[C@H](O)[C@H](O)[C@@H](O)[C@H](O)[C@H]1O` (relative stereo) [Example 4.3, 1-O-(DODECYLPHOSPHOTHIOLYL)-MYO-INOSITOL], the IC50 in data set [2] is above 100 µM.

Take `CCCCCCCCSP(=O)(O)O[C@@H]1[C@H](O)[C@H](O)[C@@H](O)[C@H](O)[C@H]1O` (relative stereo) [Example 5.3, 1-O-(OCTYLPHOSPHOTHIOLYL)-MYO-INOSITOL]: the IC50 in data set [2] was above 100 µM.

These data come from patent US5352810A, “Phosphatidylinositol analogues, inhibitors of phosphatidylinositol specific phospholipase C” (Mediolanum Farmaceutici S.p.A., priority 1991, dated 1994).
